According to ChEMBL document CHEMBL1201862, “PubChem BioAssay data set” (2004):
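Following 48 hours of exposure in 96-well plates, responses at five concentrations were used to interpolate endpoints linearly. Abbreviation: GI50, concentration required for 50% inhibition of growth.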 Calls of active or inactive are those of the source. No stated cut-off is given here; in the data, active = GI50 up to about 1.1 µM and inactive = higher.

Legend:
Assay in all cases: growth of human tumour cells (NCI), 48 h
OVCAR-3 = system: OVCAR-3
HOP-62 = system: HOP-62
OVCAR-4 = system: OVCAR-4
UO-31 = system: UO-31
LOX IMVI = system: LOX IMVI
MDA-N = system: MDA-N
SK-MEL-2 = system: SK-MEL-2
NCI-H522 = system: NCI-H522
SF-268 = system: SF-268
A498 = system: A498
UACC-62 = system: UACC-62
SK-OV-3 = system: SK-OV-3
COLO 205 = system: COLO 205
TK-10 = system: TK-10
NCI-H226 = system: NCI-H226
SNB-19 = system: SNB-19
U-251 = system: U-251
HOP-92 = system: HOP-92
MOLT-4 = system: MOLT-4

Compound	GI50 (OVCAR-3)	GI50 (HOP-62)	GI50 (OVCAR-4)	GI50 (UO-31)	GI50 (LOX IMVI)	GI50 (MDA-N)	GI50 (SK-MEL-2)	GI50 (NCI-H522)	GI50 (SF-268)	GI50 (A498)	GI50 (UACC-62)	GI50 (SK-OV-3)	GI50 (COLO 205)	GI50 (TK-10)	GI50 (NCI-H226)	GI50 (SNB-19)	GI50 (U-251)	GI50 (HOP-92)	GI50 (MOLT-4)
NN/C(=N\S(=O)(=O)c1cc(S(=O)(=O)c2ccccc2)cs1)Nc1ccc(Cl)cc1	20.3 µM (inactive)	38.4 µM (inactive)	20 µM (inactive)	28.8 µM (inactive)	21.2 µM (inactive)	20.5 µM (inactive)	16.7 µM (inactive)	13.2 µM (inactive)	19.9 µM (inactive)	33.8 µM (inactive)	17.5 µM (inactive)	43.7 µM (inactive)	19.4 µM (inactive)	24.8 µM (inactive)	33.1 µM (inactive)	42.1 µM (inactive)	23.5 µM (inactive)	33.3 µM (inactive)	18.6 µM (inactive)
C(=C\c1cccc(/C=C/c2ccccn2)n1)/c1ccccn1	79.3 µM (inactive)	> 100 µM (inactive)	60.4 µM (inactive)	26.2 µM (inactive)	66.4 µM (inactive)	68.2 µM (inactive)	> 100 µM (inactive)	13.4 µM (inactive)	20.2 µM (inactive)	0.971 µM (active)	27.1 µM (inactive)	> 100 µM (inactive)	39.8 µM (inactive)	> 100 µM (inactive)	> 100 µM (inactive)	> 100 µM (inactive)	> 100 µM (inactive)	> 100 µM (inactive)	31.5 µM (inactive)
C[C@@H](CC(=O)OCc1ccccc1)OC1OC(COC(=O)C(C)(C)C)C(OC(=O)C(C)(C)C)C(OC(=O)C(C)(C)C)C1OC(=O)C(C)(C)C (stereo partly specified)	> 100 µM (inactive)	> 100 µM (inactive)	> 100 µM (inactive)	> 100 µM (inactive)	> 100 µM (inactive)	36 µM (inactive)	> 100 µM (inactive)	> 100 µM (inactive)	> 100 µM (inactive)	> 100 µM (inactive)	> 100 µM (inactive)	> 100 µM (inactive)	> 100 µM (inactive)	> 100 µM (inactive)	> 100 µM (inactive)	> 100 µM (inactive)	> 100 µM (inactive)	> 100 µM (inactive)	94.4 µM (inactive)
N#CCN1CCCN(CC#N)CCN(CC#N)CCCN(CC#N)CC1	> 100 µM (inactive)	> 100 µM (inactive)	> 100 µM (inactive)	> 100 µM (inactive)	16.7 µM (inactive)	> 100 µM (inactive)	> 100 µM (inactive)	> 100 µM (inactive)	> 100 µM (inactive)	> 100 µM (inactive)	> 100 µM (inactive)	> 100 µM (inactive)	11.4 µM (inactive)	> 100 µM (inactive)	> 100 µM (inactive)	> 100 µM (inactive)	> 100 µM (inactive)	> 100 µM (inactive)	> 100 µM (inactive)
COc1ccc(N(C(=O)NCCO)c2ccccc2)cc1	> 100 µM (inactive)	> 100 µM (inactive)	> 100 µM (inactive)	> 100 µM (inactive)	> 100 µM (inactive)	> 100 µM (inactive)	> 100 µM (inactive)	> 100 µM (inactive)	> 100 µM (inactive)	> 100 µM (inactive)	> 100 µM (inactive)	> 100 µM (inactive)	> 100 µM (inactive)	> 100 µM (inactive)	> 100 µM (inactive)	> 100 µM (inactive)	> 100 µM (inactive)	> 100 µM (inactive)	> 100 µM (inactive)
c1ccc(CC(Nc2cccnc2)c2ccccc2)cc1 (stereo unspecified)	16.4 µM (inactive)	24.5 µM (inactive)	25.7 µM (inactive)	19.7 µM (inactive)	16.2 µM (inactive)	20.1 µM (inactive)	18.4 µM (inactive)	22.4 µM (inactive)	40.6 µM (inactive)	34 µM (inactive)	16.6 µM (inactive)	31.7 µM (inactive)	19.8 µM (inactive)	32.2 µM (inactive)	24.2 µM (inactive)	30.8 µM (inactive)	19.5 µM (inactive)	17.4 µM (inactive)	16.4 µM (inactive)
Oc1ccc(O)c(CNc2ccc(C(O)C(F)(F)F)cc2)c1 (stereo unspecified)	3.98 µM (inactive)	15.6 µM (inactive)	16.3 µM (inactive)	10.3 µM (inactive)	14.2 µM (inactive)	9.86 µM (inactive)	20.1 µM (inactive)	1.66 µM (inactive)	22.2 µM (inactive)	41.4 µM (inactive)	15.7 µM (inactive)	44.3 µM (inactive)	18.5 µM (inactive)	17.8 µM (inactive)	18.4 µM (inactive)	44.9 µM (inactive)	35.8 µM (inactive)	13.6 µM (inactive)	5.01 µM (inactive)
COc1ccc2c3c(c(=O)n(C)c2c1OC)C=CC(C)(C)O3	48 µM (inactive)	80.2 µM (inactive)	19.1 µM (inactive)	20.9 µM (inactive)	33.7 µM (inactive)	21.7 µM (inactive)	42.6 µM (inactive)	34.5 µM (inactive)	26.8 µM (inactive)	17.9 µM (inactive)	37.8 µM (inactive)	32.1 µM (inactive)	19.7 µM (inactive)	28.8 µM (inactive)	22.2 µM (inactive)	20.7 µM (inactive)	30.6 µM (inactive)	18 µM (inactive)	24.4 µM (inactive)
CCOC(=O)C1(Cc2ccccc2)CCN(C(=O)c2ccccc2)C2C1C2(Cl)Cl (stereo unspecified)	18.3 µM (inactive)	27.6 µM (inactive)	26 µM (inactive)	28.4 µM (inactive)	18.4 µM (inactive)	17.9 µM (inactive)	15.6 µM (inactive)	18.1 µM (inactive)	29 µM (inactive)	18.8 µM (inactive)	12 µM (inactive)	28.6 µM (inactive)	18.3 µM (inactive)	24.4 µM (inactive)	23.6 µM (inactive)	36.1 µM (inactive)	15.9 µM (inactive)	26.6 µM (inactive)	20 µM (inactive)
O=C1CCCCC/C1=C\c1ccccc1	> 100 µM (inactive)	> 100 µM (inactive)	67.6 µM (inactive)	> 100 µM (inactive)	> 100 µM (inactive)	> 100 µM (inactive)	> 100 µM (inactive)	> 100 µM (inactive)	> 100 µM (inactive)	> 100 µM (inactive)	63.4 µM (inactive)	> 100 µM (inactive)	> 100 µM (inactive)	> 100 µM (inactive)	67.1 µM (inactive)	> 100 µM (inactive)	> 100 µM (inactive)	> 100 µM (inactive)	80.9 µM (inactive)
COc1ccccc1/N=N/c1c(O)c(S(=O)(=O)O)cc2cc(S(=O)(=O)O)ccc12	> 100 µM (inactive)	> 100 µM (inactive)	> 100 µM (inactive)	> 100 µM (inactive)	> 100 µM (inactive)	> 100 µM (inactive)	53.5 µM (inactive)	> 100 µM (inactive)	> 100 µM (inactive)	> 100 µM (inactive)	> 100 µM (inactive)	> 100 µM (inactive)	> 100 µM (inactive)	> 100 µM (inactive)	> 100 µM (inactive)	> 100 µM (inactive)	> 100 µM (inactive)	> 100 µM (inactive)	> 100 µM (inactive)
O=C(CCCCCCCCC(=O)NN1C(=O)/C(=C\c2ccc(O)c(O)c2)SC1c1c(O)ccc2ccccc12)NN1C(=O)C(=Cc2ccc(O)c(O)c2)SC1c1c(O)ccc2ccccc12 (stereo unspecified)	2.25 µM (inactive)	2.45 µM (inactive)	5.16 µM (inactive)	3.39 µM (inactive)	1.79 µM (inactive)	> 41.7 µM (inactive)	5.97 µM (inactive)	5.75 µM (inactive)	6.4 µM (inactive)	22.8 µM (inactive)	4.74 µM (inactive)	6.28 µM (inactive)	20.4 µM (inactive)	> 50.7 µM (inactive)	6.08 µM (inactive)	22.6 µM (inactive)	12.5 µM (inactive)	8.47 µM (inactive)	2.48 µM (inactive)
Nc1nc(Nc2ccccc2)sc1C(=O)c1cccs1	3.94 µM (inactive)	22.3 µM (inactive)	15.5 µM (inactive)	11.5 µM (inactive)	11.2 µM (inactive)	17.1 µM (inactive)	12.7 µM (inactive)	11 µM (inactive)	18.2 µM (inactive)	14.6 µM (inactive)	15.7 µM (inactive)	29.4 µM (inactive)	7.06 µM (inactive)	16.4 µM (inactive)	16.8 µM (inactive)	16.6 µM (inactive)	15.3 µM (inactive)	30.3 µM (inactive)	6.75 µM (inactive)
CC(C)(C)c1cc(C(C)(C)C)c(SC2OC(CO)C(O)C(O)C2O)c(O)c1O (stereo unspecified)	7.66 µM (inactive)	13.2 µM (inactive)	12.3 µM (inactive)	11.4 µM (inactive)	8.95 µM (inactive)	4.12 µM (inactive)	11.1 µM (inactive)	7.21 µM (inactive)	6.97 µM (inactive)	14.7 µM (inactive)	2.2 µM (inactive)	15.2 µM (inactive)	8.45 µM (inactive)	12.1 µM (inactive)	12.3 µM (inactive)	8.02 µM (inactive)	7.43 µM (inactive)	11.6 µM (inactive)	9.1 µM (inactive)
